The record followed here is US20220087969A1, “METHOD FOR TREATING ASTHMA” (Olatec Therapeutics LLC, priority 2019, published 2022).

Data set [1] concerns OVA-induced allergic airway inflammation. The data set is described as follows: Leukocyte subpopulations in BALF, OVA model, oral dapansutrile in food. The data set is classed as in vivo, mice. As for the experimental part: The experimental protocols of the mouse model were the same as those described in Example 1, except dapansutrile was administered orally by food. The already-sensitized mice were fed ad libidum with food pellets containing 7.5 g/kg dapansutrile starting on day 22 for one week; the first aerosol challenge was on day 26. Mice typically consume about 4 g of food per day, resulting in an approximate daily dose of 0 mg/kg/day for control groups and 1,000 mg/kg/day for the treatment groups. […] OVA-sensitized, OVA-challenged asthmatic controls (asthmatic) were fed with control food pellets without dapansutrile.

A short description of data set [2]: Blood level in mice fed dapansutrile food pellets. Conditions: 7.5 g/kg dapansutrile in food, nearly the same as the human level. The data set is classed as in vivo, mouse. As for the experimental part: The already-sensitized mice were fed ad libidum with food pellets containing 7.5 g/kg dapansutrile starting on day 22 for one week; the first aerosol challenge was on day 26. Mice typically consume about 4 g of food per day, resulting in an approximate daily dose of 0 mg/kg/day for control groups and 1,000 mg/kg/day for the treatment groups.

The mark [3] stands for this setting: oral, 7.5 g/kg in food, vs asthmatic mice, p<0.05.

Regarding `CS(=O)(=O)CCC#N` [dapansutrile, 3-methanesulfonylpropionitrile], the “reduction in eosinophils in BALF” value in data set [1] (oral, 7.5 g/kg in food from day 22 for one week, vs asthmatic mice, p<0.0001) was around 75%. In addition, in data set [1] (oral, 7.5 g/kg in food, vs asthmatic mice), the “macrophage numbers in BALF” value is listed as “no significant reduction”. Also, in data set [1] (setting [3]), the “reduction in lymphocytes in BALF” value is listed as around 75% and the “reduction in neutrophils in BALF” value is around 75%. The “lymphocytes in BALF” value in data set [1] (treated mice, oral 7.5 g/kg in food, asthmatic 1.00×10^4) was 0.26×10^4 cells/ml. For the same molecule, the “neutrophils in BALF” value in data set [1] (treated mice, oral 7.5 g/kg in food, asthmatic 1.74×10^4) is recorded as 0.43×10^4 cells/ml. Besides, the “eosinophils in BALF” value in data set [1] (treated mice, oral 7.5 g/kg in food, asthmatic 15.93×10^4) is 3.77×10^4 cells/ml. In addition, the blood level in data set [2] is around 40000 ng/mL.
